Read-outs that look alike come from different tables or passages of the source.
How the values were obtained:
EGFR del19/T790M/C797S = EGFR del19/T790M/C797S (Homo sapiens, UniProt P00533, C797S/DEL746-750/T790M); assay: Biochemical EGFR kinase assay (Lance Ultra TR-FRET), triple mutant del19/T790M/C797S
Procedure, shortened: (§1)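 Step 1: compound in kinase buffer, 0.003–10 μM. Step 2: kinase reaction 1 h at room temperature. Step 4: TR-FRET read at 615/665 nm; IC50 calculated.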

EGFR L858R/T790M/C797S = EGFR L858R/T790M/C797S (Homo sapiens, UniProt P00533, C797S/L858R/T790M); assay: Biochemical EGFR kinase assay (Lance Ultra TR-FRET), triple mutant L858R/T790M/C797S
Sequence of EGFR L858R/T790M/C797S (P00533 25-1210 T790M/C797S/L858R): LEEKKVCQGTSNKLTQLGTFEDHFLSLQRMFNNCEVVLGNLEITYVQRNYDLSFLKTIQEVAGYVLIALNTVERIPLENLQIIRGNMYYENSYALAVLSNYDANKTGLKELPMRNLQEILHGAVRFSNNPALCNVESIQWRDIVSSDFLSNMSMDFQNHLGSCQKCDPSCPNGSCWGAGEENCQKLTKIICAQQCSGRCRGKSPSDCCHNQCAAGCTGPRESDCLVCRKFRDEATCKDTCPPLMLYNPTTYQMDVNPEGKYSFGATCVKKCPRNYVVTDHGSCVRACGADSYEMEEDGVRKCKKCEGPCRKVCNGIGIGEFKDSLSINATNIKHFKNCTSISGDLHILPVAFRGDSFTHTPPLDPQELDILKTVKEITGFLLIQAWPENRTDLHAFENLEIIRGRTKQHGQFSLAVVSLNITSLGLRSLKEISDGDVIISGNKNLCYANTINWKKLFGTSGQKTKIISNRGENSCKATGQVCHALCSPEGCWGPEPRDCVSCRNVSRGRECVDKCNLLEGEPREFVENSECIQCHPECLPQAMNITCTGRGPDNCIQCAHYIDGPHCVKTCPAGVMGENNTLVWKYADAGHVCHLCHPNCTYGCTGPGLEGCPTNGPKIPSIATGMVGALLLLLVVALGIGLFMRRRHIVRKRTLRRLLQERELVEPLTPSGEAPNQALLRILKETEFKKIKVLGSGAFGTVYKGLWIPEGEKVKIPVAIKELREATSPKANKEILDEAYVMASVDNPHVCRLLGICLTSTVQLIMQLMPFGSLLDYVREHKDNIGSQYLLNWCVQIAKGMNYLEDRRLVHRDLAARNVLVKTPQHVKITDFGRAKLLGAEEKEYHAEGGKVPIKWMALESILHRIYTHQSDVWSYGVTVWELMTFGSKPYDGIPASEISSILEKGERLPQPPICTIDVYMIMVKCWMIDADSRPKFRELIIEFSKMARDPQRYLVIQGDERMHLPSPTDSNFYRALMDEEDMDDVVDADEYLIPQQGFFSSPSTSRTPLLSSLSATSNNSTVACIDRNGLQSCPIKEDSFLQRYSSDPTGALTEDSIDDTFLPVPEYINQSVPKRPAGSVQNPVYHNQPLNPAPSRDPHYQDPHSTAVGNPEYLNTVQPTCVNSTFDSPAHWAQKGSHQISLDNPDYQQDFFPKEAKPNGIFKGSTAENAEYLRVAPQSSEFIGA
Procedure, shortened: as §1

EGFR del19/C797S = EGFR del19/C797S (Homo sapiens, UniProt P00533, C797S/DEL746-750); assay: Biochemical EGFR kinase assay (Lance Ultra TR-FRET), double mutant del19/C797S
Sequence of EGFR del19/C797S (P00533 with tags, fused parts or gaps DEL746-750/C797S): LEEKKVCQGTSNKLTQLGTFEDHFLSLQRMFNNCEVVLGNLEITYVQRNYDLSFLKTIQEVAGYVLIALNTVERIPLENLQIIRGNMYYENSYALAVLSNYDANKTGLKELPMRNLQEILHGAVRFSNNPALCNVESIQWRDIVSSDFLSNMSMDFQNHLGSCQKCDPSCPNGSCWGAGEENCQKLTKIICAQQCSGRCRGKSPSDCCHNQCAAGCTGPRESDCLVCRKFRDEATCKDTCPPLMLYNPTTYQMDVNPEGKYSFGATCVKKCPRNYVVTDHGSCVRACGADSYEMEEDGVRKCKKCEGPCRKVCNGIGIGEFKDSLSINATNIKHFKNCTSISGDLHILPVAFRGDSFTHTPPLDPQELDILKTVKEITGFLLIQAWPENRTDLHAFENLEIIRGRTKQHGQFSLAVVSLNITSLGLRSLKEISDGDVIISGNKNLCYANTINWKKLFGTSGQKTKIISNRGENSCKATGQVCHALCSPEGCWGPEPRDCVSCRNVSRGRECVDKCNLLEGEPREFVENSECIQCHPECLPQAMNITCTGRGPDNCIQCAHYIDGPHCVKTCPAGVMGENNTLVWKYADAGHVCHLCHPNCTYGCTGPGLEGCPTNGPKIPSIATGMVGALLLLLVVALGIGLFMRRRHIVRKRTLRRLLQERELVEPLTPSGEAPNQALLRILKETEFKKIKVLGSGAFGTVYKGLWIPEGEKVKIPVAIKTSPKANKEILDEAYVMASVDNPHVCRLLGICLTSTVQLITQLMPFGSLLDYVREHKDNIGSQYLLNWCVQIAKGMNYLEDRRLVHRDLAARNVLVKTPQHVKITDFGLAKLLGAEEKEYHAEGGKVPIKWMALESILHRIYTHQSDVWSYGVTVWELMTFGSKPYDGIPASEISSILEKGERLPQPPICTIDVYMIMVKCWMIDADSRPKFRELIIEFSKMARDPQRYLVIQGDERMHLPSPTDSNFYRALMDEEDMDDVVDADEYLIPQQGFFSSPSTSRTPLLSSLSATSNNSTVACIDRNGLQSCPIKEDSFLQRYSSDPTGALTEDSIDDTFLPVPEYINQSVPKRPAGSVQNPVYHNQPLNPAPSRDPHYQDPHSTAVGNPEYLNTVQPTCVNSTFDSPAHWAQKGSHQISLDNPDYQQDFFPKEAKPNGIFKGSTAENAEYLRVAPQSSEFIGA
Procedure, shortened: as §1

EGFR L858R/C797S = EGFR L858R/C797S (Homo sapiens, UniProt P00533, C797S/L858R); assay: Biochemical EGFR kinase assay (Lance Ultra TR-FRET), double mutant L858R/C797S
Procedure, shortened: as §1

EGFR wildtype = EGFR wildtype (Homo sapiens, UniProt P00533); assay: Biochemical EGFR kinase assay (Lance Ultra TR-FRET), wildtype
Sequence of EGFR wildtype (P00533 25-1210): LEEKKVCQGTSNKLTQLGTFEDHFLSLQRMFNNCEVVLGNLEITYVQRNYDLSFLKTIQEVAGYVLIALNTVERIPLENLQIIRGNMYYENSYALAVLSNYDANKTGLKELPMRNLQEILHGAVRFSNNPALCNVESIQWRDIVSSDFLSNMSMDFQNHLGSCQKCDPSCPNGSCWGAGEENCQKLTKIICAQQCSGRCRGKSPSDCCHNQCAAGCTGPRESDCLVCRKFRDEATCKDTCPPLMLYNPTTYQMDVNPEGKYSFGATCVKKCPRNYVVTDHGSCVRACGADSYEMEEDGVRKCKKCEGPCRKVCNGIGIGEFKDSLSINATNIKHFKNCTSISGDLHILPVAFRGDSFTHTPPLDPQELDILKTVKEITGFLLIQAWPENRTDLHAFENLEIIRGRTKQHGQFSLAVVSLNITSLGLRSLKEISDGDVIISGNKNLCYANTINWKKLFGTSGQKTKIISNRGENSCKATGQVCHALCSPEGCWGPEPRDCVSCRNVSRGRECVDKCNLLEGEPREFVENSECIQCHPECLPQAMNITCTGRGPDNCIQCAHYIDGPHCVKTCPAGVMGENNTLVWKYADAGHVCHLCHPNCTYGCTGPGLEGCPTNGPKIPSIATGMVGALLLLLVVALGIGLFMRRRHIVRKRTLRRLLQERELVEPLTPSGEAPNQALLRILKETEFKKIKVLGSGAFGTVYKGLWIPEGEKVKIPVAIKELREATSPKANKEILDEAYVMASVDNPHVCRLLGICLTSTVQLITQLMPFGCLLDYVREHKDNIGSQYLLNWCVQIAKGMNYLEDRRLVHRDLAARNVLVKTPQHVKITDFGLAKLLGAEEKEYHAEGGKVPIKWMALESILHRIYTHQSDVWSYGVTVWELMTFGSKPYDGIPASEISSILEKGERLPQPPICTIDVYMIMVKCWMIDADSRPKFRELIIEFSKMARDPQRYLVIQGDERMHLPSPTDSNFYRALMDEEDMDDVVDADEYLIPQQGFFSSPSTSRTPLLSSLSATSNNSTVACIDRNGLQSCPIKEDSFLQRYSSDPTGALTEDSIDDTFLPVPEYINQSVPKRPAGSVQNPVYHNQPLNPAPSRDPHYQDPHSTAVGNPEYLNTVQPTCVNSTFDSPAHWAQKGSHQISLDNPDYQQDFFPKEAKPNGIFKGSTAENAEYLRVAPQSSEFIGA
Procedure, shortened: as §1

[1] = ATP at Km, read-out: IC50 del19/T790M/C797S, Km ATP
[2] = ATP at Km, read-out: IC50 L858R/T790M/C797S, Km ATP
[3] = ATP at Km, read-out: IC50 del19/C797S, Km ATP
[4] = ATP at Km, read-out: IC50 L858R/C797S, Km ATP
[5] = ATP at Km, read-out: IC50 WT, Km ATP
[6] = Km ATP, read-out: IC50 del19/T790M/C797S (nM) Km ATP
[7] = IC50 L858R/T790M/C797S (nM) 100 μM ATP, 100 μM ATP
[8] = Km ATP, read-out: IC50 L858R/T790M/C797S (nM) Km ATP
[9] = IC50 del19/C797S (nM) 100 μM ATP, 100 μM ATP
[10] = Km ATP, read-out: IC50 del19/C797S (nM) Km ATP
[11] = IC50 L858R/C797S (nM) 100 μM ATP, 100 μM ATP
[12] = Km ATP, read-out: IC50 L858R/C797S (nM) Km ATP
[13] = IC50 WT (nM) 100 μM ATP, 100 μM ATP
[14] = Km ATP, read-out: IC50 WT (nM) Km ATP
[15] = IC50 del19/T790M/C797S (nM) 100 μM ATP, 100 μM ATP

Sequence of EGFR del19/T790M/C797S (P00533 with tags, fused parts or gaps DEL746-750/T790M/C797S): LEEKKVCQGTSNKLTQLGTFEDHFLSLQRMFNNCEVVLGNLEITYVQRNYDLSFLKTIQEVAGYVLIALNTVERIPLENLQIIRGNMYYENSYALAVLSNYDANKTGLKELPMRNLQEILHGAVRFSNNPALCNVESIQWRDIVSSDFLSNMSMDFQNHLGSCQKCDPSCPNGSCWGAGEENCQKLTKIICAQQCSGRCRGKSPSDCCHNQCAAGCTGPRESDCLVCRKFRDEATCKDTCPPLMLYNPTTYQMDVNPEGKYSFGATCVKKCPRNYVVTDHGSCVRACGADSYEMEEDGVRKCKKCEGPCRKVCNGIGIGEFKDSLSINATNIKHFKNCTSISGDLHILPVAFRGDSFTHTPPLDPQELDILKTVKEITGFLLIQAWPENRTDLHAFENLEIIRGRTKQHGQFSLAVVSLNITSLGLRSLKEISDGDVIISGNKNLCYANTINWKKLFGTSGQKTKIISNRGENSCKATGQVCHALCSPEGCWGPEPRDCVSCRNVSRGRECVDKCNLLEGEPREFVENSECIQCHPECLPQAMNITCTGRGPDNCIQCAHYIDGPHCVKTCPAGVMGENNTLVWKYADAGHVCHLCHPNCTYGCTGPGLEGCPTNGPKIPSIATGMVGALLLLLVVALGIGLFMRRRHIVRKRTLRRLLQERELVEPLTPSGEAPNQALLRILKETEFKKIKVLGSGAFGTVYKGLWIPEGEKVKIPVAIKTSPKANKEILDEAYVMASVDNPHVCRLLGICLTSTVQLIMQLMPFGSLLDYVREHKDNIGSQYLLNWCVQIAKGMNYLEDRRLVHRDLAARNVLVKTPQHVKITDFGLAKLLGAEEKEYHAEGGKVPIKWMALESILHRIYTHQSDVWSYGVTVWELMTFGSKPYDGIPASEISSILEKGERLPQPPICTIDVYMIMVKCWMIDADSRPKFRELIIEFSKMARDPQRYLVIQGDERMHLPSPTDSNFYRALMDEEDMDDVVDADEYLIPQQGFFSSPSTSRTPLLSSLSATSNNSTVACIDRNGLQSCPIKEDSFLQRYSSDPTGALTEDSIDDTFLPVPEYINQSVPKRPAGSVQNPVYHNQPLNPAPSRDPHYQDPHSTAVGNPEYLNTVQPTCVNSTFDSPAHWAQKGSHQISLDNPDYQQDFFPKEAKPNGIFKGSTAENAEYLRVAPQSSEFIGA

| SMILES | IC50 (EGFR del19/T790M/C797S; [1]) | IC50 (EGFR L858R/T790M/C797S; [2]) | IC50 (EGFR del19/C797S; [3]) | IC50 (EGFR L858R/C797S; [4]) | IC50 (EGFR wildtype; [5]) | IC50 (EGFR del19/T790M/C797S; [6]) | IC50 (EGFR L858R/T790M/C797S; [7]) | IC50 (EGFR L858R/T790M/C797S; [8]) | IC50 (EGFR del19/C797S; [9]) | IC50 (EGFR del19/C797S; [10]) | IC50 (EGFR L858R/C797S; [11]) | IC50 (EGFR L858R/C797S; [12]) | IC50 (EGFR wildtype; [13]) | IC50 (EGFR wildtype; [14]) | IC50 (EGFR del19/T790M/C797S; [15]) | further results |
| --- | --- | --- | --- | --- | --- | --- | --- | --- | --- | --- | --- | --- | --- | --- | --- | --- |
| COC(c1ccc(-c2cnc(Nc3ccnc(-c4cnn(S(=O)(=O)C5CC5)c4)n3)cc2NC2CCC(CN(C)C)CC2)nc1)C(F)(F)F (stereo not drawn) [Example 262, N^6′-(2-(1-(Cyclopropylsulfonyl)-1H-pyrazol-4-yl)pyrimidin-4-yl)-N^4′-((1s,4s)-4-((dimethylamino)methyl)cyclohexyl)-5-(2,2,2-trifluoro-1-methoxyethyl)-[2,3′-bipyridine]-4′,6′-diamine] | 1.9 nM | 0.5 nM | 1.9 nM | 0.9 nM | 2 nM |  |  |  |  |  |  |  |  |  |  |  |
| CC(C)(O)c1ccnc(-c2cnc(Nc3ccnc(-c4cnn(S(=O)(=O)C5CC5)c4)n3)cc2N[C@H]2CC[C@@H](C(C)(C)O)CC2)c1 [Example 109, 2-(6′-((2-(1-(Cyclopropylsulfonyl)-1H-pyrazol-4-yl)pyrimidin-4-yl)amino)-4′-(((1s,4s)-4-(2-hydroxypropan-2-yl)cyclohexyl)amino)-[2,3′-bipyridin]-4-yl)propan-2-ol] |  |  |  |  |  | 2 nM | 0.5 nM | 0.6 nM | 6.4 nM | 0.8 nM | 11.1 nM | 0.1 nM | 1360 nM | 5.2 nM |  |  |
| CN1CCC(F)(COc2cnc(-c3cnc(Nc4ccnc(-c5cnn(S(=O)(=O)C6CC6)c5)n4)cc3N[C@H]3CC[C@@](C)(O)CC3)cn2)CC1 [Example 154, (1s,4s)-4-((2-((2-(1-(Cyclopropylsulfonyl)-1H-pyrazol-4-yl)pyrimidin-4-yl)amino)-5-(5-((4-fluoro-1-methylpiperidin-4-yl)methoxy)pyrazin-2-yl)pyridin-4-yl)amino)-1-methylcyclohexan-1-ol] | 0.2 nM | 0.1 nM | 0.3 nM | 0.2 nM | 2.7 nM |  |  |  |  |  |  |  |  |  |  |  |
| CN1CCC(Oc2ccc(-c3cnc(Nc4ccnc(-c5cnn(S(=O)(=O)C6CC6)c5)n4)cc3NC3CCCN(CCF)C3)nc2)CC1 (stereo not drawn) [Example 257, N^6′-(2-(1-(Cyclopropylsulfonyl)-1H-pyrazol-4-yl)pyrimidin-4-yl)-N^4′-(1-(2-fluoroethyl)piperidin-3-yl)-5-((1-methylpiperidin-4-yl)oxy)-[2,3′-bipyridine]-4′,6′-diamine] | 0.4 nM | 0.2 nM | 1 nM | 0.4 nM | 7.4 nM |  |  |  |  |  |  |  |  |  |  |  |
| CC(C)(F)c1ccc(-c2cnc(Nc3ccnc(-c4cnn(S(=O)(=O)C5CC5)c4)n3)cc2N[C@H]2CC[C@@H](F)CC2)nc1 [Example 238, N^6′-(2-(1-(Cyclopropylsulfonyl)-1H-pyrazol-4-yl)pyrimidin-4-yl)-N^4′-((1s,4s)-4-fluorocyclohexyl)-5-(2-fluoropropan-2-yl)-[2,3′-bipyridine]-4′,6′-diamine] | 28.4 nM | 9.2 nM | 95.1 nM | 18.7 nM | 317 nM |  |  |  |  |  |  |  |  |  |  |  |
| C[C@]1(O)CC[C@@H](Nc2cc(Nc3ccnc(-c4cnn(S(=O)(=O)C5CC5)c4)n3)ncc2-c2ccc(N3CCOCC3)cn2)CC1 [Example 38, (1s,4s)-4-((6′-((2-(1-(Cyclopropylsulfonyl)-1H-pyrazol-4-yl)pyrimidin-4-yl)amino)-5-morpholino-[2,3′-bipyridin]-4′-yl)amino)-1-methylcyclohexan-1-ol] |  |  |  |  |  |  | 0.7 nM | 0.2 nM | 0.6 nM | 0.3 nM | 4.3 nM | 0.9 nM | 1430 nM |  | 0.4 nM |  |
| CN(C)c1ccc(-c2cnc(Nc3ccnc(-c4cnn(S(=O)(=O)C5CC5)c4)n3)cc2N[C@H]2CC[C@@](C)(O)CC2)nc1 [Example 40, (1s,4s)-4-((6′-((2-(1-(Cyclopropylsulfonyl)-1H-pyrazol-4-yl)pyrimidin-4-yl)amino)-5-(dimethylamino)-[2,3′-bipyridin]-4′-yl)amino)-1-methylcyclohexan-1-ol] |  |  |  |  |  | 0.7 nM | 1.7 nM | 0.5 nM | 3.2 nM | 2.3 nM | 7.7 nM | 1.7 nM | 1440 nM | 5 nM | 2.1 nM |  |
| O=S(=O)(C1CC1)n1cc(-c2nccc(Nc3cc(N[C@H]4CC[C@@H](CO)CC4)c(-c4ccc(OC(F)(F)F)cn4)cn3)n2)cn1 [Example 195, ((1s,4s)-4-((6′-((2-(1-(Cyclopropylsulfonyl)-1H-pyrazol-4-yl)pyrimidin-4-yl)amino)-5-(trifluoromethoxy)-[2,3′-bipyridin]-4′-yl)amino)cyclohexyl)methanol] | 3.3 nM | 1 nM | 6.6 nM | 3.6 nM | 25 nM |  |  |  |  |  |  |  |  |  |  | IC50 (EGFR del19/T790M/C797S; IC50 del19/T790M/C797S, 100 μM ATP): 3.6 nM; IC50 (EGFR L858R/T790M/C797S; IC50 L858R/T790M/C797S, 100 μM ATP): 2.5 nM; IC50 (EGFR del19/C797S; IC50 del19/C797S, 100 μM ATP): 16.3 nM; IC50 (EGFR L858R/C797S; IC50 L858R/C797S, 100 μM ATP): 36.9 nM; IC50 (EGFR wildtype; IC50 WT, 100 μM ATP): > 10000 nM |
| CC(C)(O)c1ccc(-c2cnc(Nc3ccnc(-c4cnn(S(=O)(=O)C5CC5)c4)n3)cc2NC2CCN(CC(F)F)CC2)nc1 [Example 178, 2-(6′-((2-(1-(Cyclopropylsulfonyl)-1H-pyrazol-4-yl)pyrimidin-4-yl)amino)-4′-((1-(2,2-difluoroethyl)piperidin-4-yl)amino)-[2,3′-bipyridin]-5-yl)propan-2-ol] | 0.7 nM | 1 nM | 2.6 nM | 4.7 nM | 96.5 nM |  |  |  |  |  |  |  |  |  |  |  |
| CC(C)(O)c1ccnc(-c2cnc(Nc3ccnc(-c4cnn(S(=O)(=O)C5CC5)c4)n3)cc2N[C@H]2CC[C@@](C)(O)CC2)c1 [Example 108, (1s,4s)-4-((6′-((2-(1-(Cyclopropylsulfonyl)-1H-pyrazol-4-yl)pyrimidin-4-yl)amino)-4-(2-hydroxypropan-2-yl)-[2,3′-bipyridin]-4′-yl)amino)-1-methylcyclohexan-1-ol] |  |  |  |  |  | 0.4 nM | 0.2 nM | 0.2 nM | 0.9 nM | 0.4 nM | 3.6 nM | 0.4 nM | 1860 nM | 6.9 nM | 0.4 nM |  |
| CN1CCC(Oc2ccc(-c3cnc(Nc4ccnc(-c5cnn(S(=O)(=O)C6CC6)c5)n4)cc3NC3CCC(F)(CO)CC3)nc2)CC1 (stereo not drawn) [Example 259, (4-((6′-((2-(1-(Cyclopropylsulfonyl)-1H-pyrazol-4-yl)pyrimidin-4-yl)amino)-5-((1-methylpiperidin-4-yl)oxy)-[2,3′-bipyridin]-4′-yl)amino)-1-fluorocyclohexyl)methanol] | 1 nM | 0.4 nM | 1.9 nM | 0.2 nM | 9 nM |  |  |  |  |  |  |  |  |  |  |  |
| CN1CCC(Oc2ccc(-c3cnc(Nc4ccnc(-c5cnn(S(=O)(=O)C6CC6)c5)n4)cc3NC3CCC(F)CC3)nc2)CC1 (stereo not drawn) [Example 254, N^6′-(2-(1-(Cyclopropylsulfonyl)-1H-pyrazol-4-yl)pyrimidin-4-yl)-N^4′-(4-fluorocyclohexyl)-5-((1-methylpiperidin-4-yl)oxy)-[2,3′-bipyridine]-4′,6′-diamine] | 0.04 nM | 0.02 nM | 0.1 nM | 0.4 nM | 0.7 nM |  |  |  |  |  |  |  |  |  |  |  |
| CC(C)(O)c1ccc(-c2cnc(Nc3ccnc(-c4cnn(S(=O)(=O)C5CC5)c4)n3)cc2N[C@H]2CC[C@@H](C(C)(C)O)CC2)nn1 [Example 88, 2-(6-(6-((2-(1-(Cyclopropylsulfonyl)-1H-pyrazol-4-yl)pyrimidin-4-yl)amino)-4-(((1s,4s)-4-(2-hydroxypropan-2-yl)cyclohexyl)amino)pyridin-3-yl)pyridazin-3-yl)propan-2-ol] |  |  |  |  |  | 0.4 nM | 0.4 nM | 0.1 nM | 2.2 nM |  | 31.1 nM |  | > 10000 nM | 15.3 nM | 4.9 nM |  |
